For 5 compounds, mass density and refractive index results are on record in the NIST ThermoML archive (doi:10.1021/je401095k).

The conditions of series [1]: 293.2 K; 101.33 kPa; Liquid; Vibrating tube method.
The nature of series [2]: refractive index (Na D-line) (dimensionless). The conditions noted are these: 293.2 K; 101.33 kPa; Liquid; Standard Abbe refractometry.

± gives the expanded uncertainty stated by the source.

With `CC(=O)OCCC(C)C` [3-methylbutyl ethanoate], the mass density in series [1] was determined as 866.71 ± 0.24 kg/m3. Further, in series [2], the refractive index is reported as 1.3976 ± 0.0008.
On to `CC(=O)CCC(C)C` [5-methyl-2-hexanone], for which, in series [1], the mass density stood at 887.92 ± 0.24 kg/m3. Also, the refractive index in series [2] turned out to be 1.4051 ± 0.0008.
Consider `CCCC(=O)O` [butanoic acid], for which the mass density in series [1] is listed as 952.68 ± 0.23 kg/m3. Further, the refractive index in series [2] is reported as 1.3977 ± 0.0008.
On the same counts, the results for `O=CO` [formic acid] are 1219.5 ± 0.42 kg/m3 and 1.371 ± 0.0008.
For `O` [water], in series [2], the refractive index came to 1.3324 ± 0.0008.
